Holding throughout (assay type): cell-based
One data set relates to HSV-1. Put plainly: Plaque Reduction Test for Herpes Simplex Virus 1 (strain SC16) in MRC-5 cells. Conditions: Human alphaherpesvirus 1, MRC5. As for the experimental part: MRC-5 cells were grown to confluence in 24 well multi-dishes (well diameter=1.5 cm). The drained cell monolayers were each infected with approximately 50 infectious particles of herpes simplex virus 1 (HSV-1; strain SC16) or herpes simplex virus 2 (HSV-2; strain MS) in 100 μl of phosphate-buffered saline. The virus was adsorbed for 1 hour at room temperature. After adsorption, residual inoculum was removed from each well and replaced with 0.5 ml of Eagle's MEM containing 5% newborn calf serum and 0.9% agarose (A37). Once the agarose had set, dilutions of the test compound, which had been prepared in Eagle's MEM (containing 5% newborn calf serum), were added, each well receiving 0.5 ml of liquid overlay. The test compound was diluted to give the following series of concentrations: 200, 60, 20, 6 . . . 0.06 μg/ml; final concentrations in the assay ranged, therefore, between 100 μg/ml and 0.03 μg/ml. The infected cultures were incubated at 37° C. in a humidified atmosphere of 5% CO2 until plaques were clearly visible (usually 1 day).
Cultures from 1 and 2 were fixed in formal saline, the agarose overlays were carefully washed off, and then the cell monolayers were stained with carbol fuchsin. A stereo microscope was used to count plaques. The IC50 (concentration of drug which inhibits the number of plaques formed by 50% relative to the number of plaques observed in virus control monolayers) of the test compound was calculated. In addition, the monolayers were examined for evidence of drug-induced cytotoxicity; the minimum concentration at which cytotoxicity occurs was recorded.

The test system of a further data set is Visna Virus. The experiment in a line: CPE Inhibition Test (Established Monolayer) for Lentiviruses, visna virus (strain K184) in sheep choroid plexus cells. The following applies: Visna-maedi virus; visna virus strain K184, SCP cells; read-out: MIC (minimum concentration giving complete protection of the cell monolayers). As for the experimental part: 3×10^4 sheep choroid plexus (SCP) cells were plated into individual wells of a 96 well microtitre plate in 100 μl of Eagle's MEM with Hanks' salts containing 10% heat inactivated foetal calf serum (FCS). When monolayers had become established (after 1 or 2 days growth) they were washed with 200 μl of maintenance medium (Eagle's MEM with Hanks' salts containing 0.5% FCS) and infected with 100 μl of visna virus (strain K184) in maintenance medium (30 TCID50/ml). Test samples were diluted with maintenance medium in further 96 well microtitre plates over the range 200-0.06 μg/ml by 3-fold dilution steps. 100 μl of the diluted samples was then transferred directly onto virus-infected monolayers (final concentration range therefore 100-0.03 μg/ml) and […] containing 5% CO2 until virus-induced CPE was maximal in the untreated virus-infected controls (usually 12-14 days). The plates were fixed with formal saline and stained with crystal violet. Virus-induced CPE was then scored microscopically and the minimum concentration of sample giving complete protection of the cell monolayers (MIC) determined.

The next data set has as its system HIV. The experiment in a line: HIV Suppression test, viral antigen (core protein p24, sandwich ELISA) in peripheral human lymphocytes. The following applies: Human immunodeficiency virus 1, Lymphocyte, 96 h; Concn. 0.1 μM; read-out: % Inhibition on Day 4 after infection, Viral Antigen. As for the experimental part: Peripheral human lymphocytes were prepared, cultivated, and harvested as above. Following the determination of the lymphocyte surface markers, unstimulated and mitogen stimulated cells were combined in a ratio of 1:2.
Under safety conditions these cells are infected with a standard preparation of HIV. The cells are sedimented by centrifugation. The supernatant was discarded and cells were resuspended in the HIV inoculum.
This inoculum is a liquid suspension of HIV-1 strain virus, pretested and adjusted to a titer that results in a synthesis of viral core protein p24 of >100 ng/ml at day four following infection of human lymphocytes according to the protocol.
3×10^8 lymphocytes were resuspended in 1 ml HIV inoculum and incubated at 37° C. for 60 minutes. Subsequently, the cells were washed two times with 50 ml of culture medium and resuspended in culture medium containing 10 units/ml of human recombinant interleukin-2 to yield a cell concentration of 2×10^6 cells/ml. 100 μof this cell suspension was added to each well of the microtiter plates containing the diluted solutions of the compounds. The microtiter plates were cultivated in an incubator with a humidified atmosphere and 5% CO2 at 37° C.
Accordingly, a fraction of lymphocytes was mock-infected with the same virus preparation that was heat inactivated (30 minutes at 56° C.) prior to infection.
On each of the days 2,3 and 4 post infection one of the microtiter plates which had been established in triplicate was prepared for determination of viral replication. Viral RNA is determined within the cells whereas the viral core protein p24 was detected in the supernatant of the lymphocyte culture.
Accordingly, 150 μl of supernatant were removed from each well and transferred to the well of a microtiter plate containing 50 μl/well of SDS (sodium dodecylsulfate, 0.08%). These plates were stored frozen. 50 μl of stop solution (1% SDS, 20 mM sodium acetate, pH 5.0, and 200 μg/ml heparin) were added to the cells remaining in each well. The plates were stored frozen.
The concentration of p24 synthesized by the HIV infected cells was determined by means of a sandwich ELISA, while the concentration of viral RNA was quantitated by nucleic acid hybridisation, using a ^32 P-labelled DNA probe for the gag/pol region of the viral genome. Absolute levels of viral antigen and RNA in drug treated samples were compared with untreated, virus-infected controls and the percentage inhibition calculated.
Background: An ELISA detects its analyte on a solid surface through an enzyme-linked reagent.

The nature of data set [1]: Cytotoxicity for the cell monolayers in the FIV test. Conditions: cat, crandell feline kidney cells, no cytotoxicity noted with concentrations up to this value, read-out: cytotoxicity for the cell monolayers. As for the experimental part: Drug stocks were diluted to the appropriate concentration, in medium (e.g. 10 mg/ml to 200 μg/ml). 150 μl of each drug was dispersed in triplicate, across the top row of a microtitre plate (150 μl of media for virus and cell control, vc and cc). 100 μl of medium was dispersed into all other wells. The wells were serially diluted moving down the plate, removing 50 μl from each well and transferring to the next row. 50 μl was discarded from the bottom wells.
Trypsinisation was carried out from a confluent cell monolayer of Crandell Feline Kidney cells, in 10% trypsin, followed by resuspension in media at 1×10^6 per ml, ensuring that a single cell suspension is achieved. (Media: 90% 1×RPMI, 25 mM hepes buffer; 10% Foetal calf serum; 2% Glutamine; 2% penecillin/streptomycin.)
FIV Glasgow 8 virus was diluted to 4× the required virus challenge in medium (40 TCID50 /ml). The virus infected medium was mixed with an equal volume of cell suspension, 100 μl of which was aliquoted into each well of the drug plate, except cell control. 100 μl of cell suspension at 5×10^4 per ml was added to the latter. This gives a final cell concentration of 2.5×10^4 per ml, and drug range 100-0.03 μg/ml. The plates were incubated at 37° C., 5% CO2 in an air humidified incabator for 11-14 days. The cells were fixed by immersing the plates in formoli saline (10% formaldehyde; 10% 1.5M NaCl; 80% water) for 1 hour minimum. The cells were stained with 10% crystal violet for 15 minutes.
The assay was scored by looking for presence of syncitia and, virus induced cytopathic effect in the cell monolayers, under a microscope. Results are given as the minimum concentration of drug inhibiting syncitial production, minimum inhibitory concentration, MIC.

Structures are written as SMILES. A value given as a limit tells only on which side of the number the result lay.

Data on one molecule can be found in US5356886A, “Antiviral phosphono-alken derivatives of purines” (Beecham Group p.l.c., priority 1990, dated 1994).

Broadly, the IC50 is the concentration that inhibits the measured activity by half. Lower therefore signals greater potency in that assay. As a reminder, the inhibition is the drop in the measured response relative to a control, in per cent.

In the case of `Nc1nc2c(ncn2OCC/C=C/P(=O)(O)O)c(=O)[nH]1` [Example 1, (E)-9-(4-phosphonobut-3-enyloxy)guanine], the IC50 in the data set with HSV-1 was under 3 µg/mL. For the same molecule, in the data set on Visna Virus, the MIC is under 0.003 µg/mL. Besides, in the data set on HIV, the inhibition at 0.1 µM is 93%. For the same molecule, the MCC in data set [1] is over 100 µg/mL.
